Data on nine compounds can be found in patent US12018084B2, “Anti-CXCR2 antibodies and uses thereof” (Cephalon LLC, priority 2018, dated 2024).

For assay [1], the target named is T1, Human CXCR2 (Homo sapiens, UniProt P25025).
T1 sequence (P25025 1-360): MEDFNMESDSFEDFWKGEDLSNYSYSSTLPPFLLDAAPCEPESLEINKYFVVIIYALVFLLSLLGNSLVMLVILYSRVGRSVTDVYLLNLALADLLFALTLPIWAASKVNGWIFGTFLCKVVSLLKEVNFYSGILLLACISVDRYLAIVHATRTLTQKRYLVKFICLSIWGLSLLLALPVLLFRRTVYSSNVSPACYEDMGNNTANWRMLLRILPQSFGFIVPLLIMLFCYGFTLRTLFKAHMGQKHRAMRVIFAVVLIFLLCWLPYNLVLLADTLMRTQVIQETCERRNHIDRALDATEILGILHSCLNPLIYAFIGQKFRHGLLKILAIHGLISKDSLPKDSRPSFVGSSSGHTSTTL
In words: Tango CXCR2-bla U2OS cell-based β-arrestin recruitment assay. Also noted: The beta-arrestin/TEV protease fusion and the beta-lactamase reporter are separate parts of the cell line. Conditions: for EC50: human agonist potency. An excerpt: Cells were thawed, propagated, cultured and frozen according to the manufacturer's directions.
Preparation of Tango™ CXCR2-bla U2OS cells for use in cell-based assays: The manufacturer's protocol was altered to make use of 96-well plates instead of 384-well plates. Briefly, dividing cells were harvested one day prior to use. Cells were harvested and resuspended in assay medium (100% FreeStyle™ Expression Medium; Life Technologies; Cat #12338-018) at a viable cell density of 312,500 cells/mL. 128 μL of cell suspension was added per well in 96-well black-walled, clear bottom tissue culture-treated plates. Cells were incubated for 16-20 hrs at 37° C. in an atmosphere of 5% CO2 prior to use in assays.
Tango™ assay procedure: Assays were set up and run as described in the manufacturer's protocol. For antagonist assays, agonists were used at concentrations in the EC50-EC80 range. Assays were read using a FlexStation® 3 (Molecular Devices) fluorescence plate reader configured with the parameters given in Table 4. The blue/green emission ratio for each well was calculated by dividing the blue emission values by the green emission values. All inhibition curves were fitted using a four-parameter dose-response using GraphPad Prism™ (Version 7.01).
The Human CXCR2 Tango™ cell line was used to assess the ability of antibody BKO-4A8-101c to inhibit β-arrestin recruitment to agonist-activated CXCR2. All human ELR+ chemokine CXCR2 ligands were tested in antagonist dose response assays using calculated EC50 values of agonist.
The commercially available reporter cell line Tango™ CXCR2-bla U2OS (ThermoFisher Scientific) was used to assess the ability of the anti-CXCR2 antibodies to inhibit β-arrestin recruitment to agonist-activated CXCR2. Agonists were provided at their assay EC50 concentration for antagonist assays.

The target of assay [2] is T1, Human CXCR2. In words: Calcium flux assay, HTS002C-CHEMISCREEN human CXCR2 calcium-optimized cell line. Conditions: for EC50: human agonist potency. It counts as cell-based. The protocol: One of the signaling pathways downstream of CXCR2 activation that has a role in cell chemotaxis is characterized by calcium mobilization (flux). The ability of BKO-4A8-101c to inhibit human CXCR2 ligand-induced calcium flux was tested in the commercially available HTS002C-CHEMISCREEN™ human CXCR2 chemokine receptor calcium-optimized cell line.
The Fluo-4 NW calcium assay kit (Life Technologies) was used according to manufacturer's protocol for in-cell measurement of calcium mobilization, which was read using a FLIPR Tetra high-throughput cellular screening system (Molecular Devices). The peak response minus the basal response from each well was used to determine inhibition dose response curves fitting a four-parameter logistic equation and IC50 values.

For the next assay, the target named is T2, CXCR1 (Homo sapiens, UniProt P25024).
T2 sequence (P25024 1-350): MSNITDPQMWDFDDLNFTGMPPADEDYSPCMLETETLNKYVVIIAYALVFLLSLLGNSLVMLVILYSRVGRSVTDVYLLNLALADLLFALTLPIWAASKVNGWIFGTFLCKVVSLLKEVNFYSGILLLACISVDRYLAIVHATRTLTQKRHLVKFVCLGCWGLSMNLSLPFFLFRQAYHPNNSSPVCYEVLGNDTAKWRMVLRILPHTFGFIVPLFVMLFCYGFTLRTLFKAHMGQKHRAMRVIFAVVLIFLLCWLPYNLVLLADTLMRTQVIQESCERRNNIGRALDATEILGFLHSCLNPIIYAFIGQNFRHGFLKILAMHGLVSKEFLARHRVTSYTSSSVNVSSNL
Conditions: selectivity versus CXCR2; cited from earlier work.

In the next assay the target is T3, CCR2b receptors (Homo sapiens, UniProt P41597).
T3 sequence (P41597 1-360 isoform P41597-2): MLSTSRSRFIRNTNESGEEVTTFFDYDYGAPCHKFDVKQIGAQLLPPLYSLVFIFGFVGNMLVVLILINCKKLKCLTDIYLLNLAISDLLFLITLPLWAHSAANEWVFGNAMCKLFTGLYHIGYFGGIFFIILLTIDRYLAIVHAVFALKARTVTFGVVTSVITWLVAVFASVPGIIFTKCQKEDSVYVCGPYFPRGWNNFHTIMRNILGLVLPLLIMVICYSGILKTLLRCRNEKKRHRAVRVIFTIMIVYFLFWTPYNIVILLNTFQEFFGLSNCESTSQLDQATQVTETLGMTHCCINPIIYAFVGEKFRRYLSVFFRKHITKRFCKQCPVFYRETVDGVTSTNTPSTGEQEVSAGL
Conditions: selectivity versus CXCR2; cited from earlier work.

The subject of the next assay is CD11b expression. The following applies: cited from earlier work.
The test system of assay [3] is mouse model of severe asthma. The following applies: pre-treatment with 10 and 30 mg/kg; not significantly different from HDM-vehicle; cited from earlier work.
A further assay deals with COPD. Conditions: in vivo; cited from earlier work.
Assay [4] deals with neutrophil surface expression of CD11b. Conditions: cited from earlier work.

Usually EC50 stands for the concentration needed to bring the measured effect to its halfway point. Regarding “CXCL5: human agonist chemokine, R&D Systems 254-XB [reference compound]”, the figures for the EC50 with Human CXCR2 [1] and with Human CXCR2 [2] were 97.7 nM and 39.2 nM, respectively.

With “CXCL8: human agonist chemokine, Miltenyi Biotec 130-108-979 [reference compound]”, the EC50 with Human CXCR2 [2] was determined as 3.2 nM.

Regarding `C[C@@H](Oc1cc(NS(=O)(=O)N2CCC2)nc(SCc2cccc(F)c2F)n1)[C@@H](O)CO` [AZD5069], at CXCR1, the “fold less potent at CXCR1” value was greater than 150 fold. For the same compound, the “fold less potent at CCR2b receptors” value on CCR2b receptors is listed as greater than 150 fold. Also, in the assay on CD11b expression, the “effect on C5a, LTB4 or fMLP induced CD11b expression” value is listed as “no effect”.

Consider “CXCL3: human agonist chemokine, R&D Systems 277-GG [reference compound]”, for which the EC50 with Human CXCR2 [1] amounted to 11.9 nM; in the assay with Human CXCR2 [2], 12.2 nM.

Consider `CC[C@@H](Nc1c(Nc2cccc(C(=O)N(C)C)c2O)c(=O)c1=O)c1ccc(C)o1` [Antagonist 6, SCH 527123], for which, in assay [3], the “inhibition of neutrophil cell numbers in the BAL (maximum)” value is reported as no more than 30%.

For the compound “CXCL2: human agonist chemokine, R&D Systems 276-GB [reference compound]”, the EC50 was determined as 33.3 nM with Human CXCR2 [1] and 37 nM with Human CXCR2 [2].

On to “CXCL1: human agonist chemokine, Miltenyi Biotec 130-108-974 [reference compound]”, for which the concentration for a half-maximal effect (EC50) came to 2.3 nM with Human CXCR2 [1] and 2.62 nM in the assay with Human CXCR2 [2].

By IC90 is commonly meant the point of the concentration-response curve where the effect stands at 90%. As a reminder, the IC50 is the midpoint of a concentration-inhibition curve. Consider `Cc1c(F)cccc1NC(=O)Nc1ccc(Cl)c(S(=O)(=O)[C@H]2CCCNC2)c1O` [Antagonist 5, Danirixin], for which the “CXCL1 Maximal Inhibition %” value was determined as 99% on Human CXCR2 [1] (CXCL1 at EC50, comparison with comparators) and 95% at Human CXCR2 [2] (CXCL1 at EC50). In addition, the “CXCL5 Maximal Inhibition %” value on Human CXCR2 [1] (CXCL5 at EC50, comparison with comparators) was 99%. Further, the “CXCL8 Maximal Inhibition %” value on Human CXCR2 [1] (CXCL8 at EC50, comparison with comparators) is 99%; on Human CXCR2 [2] (CXCL8 at EC50), 97%. The “primary end points in a Phase IIb trial for COPD” value with COPD is “failed to meet primary end points”. Also, in assay [4], the “CD11b upregulation on neutrophils” value is recorded as “block CD11b upregulation”. Further, in assay [4], the “IC50, CXCL1-induced ex vivo neutrophil surface expression of CD11b” value is listed as 69 ng/mL. In addition, the “IC90, CXCL1-induced ex vivo neutrophil surface expression of CD11b” value in assay [4] (range 158-1080 ng/ml) is 620 ng/mL. Further, the IC90 in assay [4] (range 356-2443 nM, read-out: IC90, CXCL1-induced ex vivo neutrophil surface expression of CD11b) is 1400 nM. Also, the IC50 in assay [4] (read-out: IC50, CXCL1-induced ex vivo neutrophil surface expression of CD11b) was 156 nM.

As for “CXCL6: human agonist chemokine, R&D Systems 333-GC [reference compound]”, the results for the 50% effective concentration (EC50) with Human CXCR2 [1] and in the assay with Human CXCR2 [2] were 9.4 nM and 28.9 nM, respectively.
